Results published in patent US4214093A, “Amino- or guanidino-1,2,3,4-tetrahydro-1-naphthoic esters” (Torii & Co., Ltd., priority 1977, dated 1980).
Read-outs that look alike come from different tables or passages of the source.

What was measured:
Format in all cases: biochemical
Human Plasmin = Human Plasmin (Homo sapiens, UniProt P00747); test: Inhibitory effect on ester-hydrolyzing activity of human plasmin (TAMe substrate); conditions: for inhibition at 1000 µM: read-out: Plasmin percent inhibition; for IC50: Table 4 bracketed value, read-out: Plasmin ID50; for inhibitory activity on plasmin: text of Examples
Sequence of Human Plasmin (P00747 581-810 limits assumed): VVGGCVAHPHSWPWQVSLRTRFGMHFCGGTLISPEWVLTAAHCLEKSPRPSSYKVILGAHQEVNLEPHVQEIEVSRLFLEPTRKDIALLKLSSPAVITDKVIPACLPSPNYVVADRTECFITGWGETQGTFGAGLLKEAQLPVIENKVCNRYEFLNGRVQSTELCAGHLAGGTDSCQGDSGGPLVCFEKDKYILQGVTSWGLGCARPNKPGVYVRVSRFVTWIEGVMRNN
Sequence of Human Plasmin (P00747 97-580 partner limits assumed): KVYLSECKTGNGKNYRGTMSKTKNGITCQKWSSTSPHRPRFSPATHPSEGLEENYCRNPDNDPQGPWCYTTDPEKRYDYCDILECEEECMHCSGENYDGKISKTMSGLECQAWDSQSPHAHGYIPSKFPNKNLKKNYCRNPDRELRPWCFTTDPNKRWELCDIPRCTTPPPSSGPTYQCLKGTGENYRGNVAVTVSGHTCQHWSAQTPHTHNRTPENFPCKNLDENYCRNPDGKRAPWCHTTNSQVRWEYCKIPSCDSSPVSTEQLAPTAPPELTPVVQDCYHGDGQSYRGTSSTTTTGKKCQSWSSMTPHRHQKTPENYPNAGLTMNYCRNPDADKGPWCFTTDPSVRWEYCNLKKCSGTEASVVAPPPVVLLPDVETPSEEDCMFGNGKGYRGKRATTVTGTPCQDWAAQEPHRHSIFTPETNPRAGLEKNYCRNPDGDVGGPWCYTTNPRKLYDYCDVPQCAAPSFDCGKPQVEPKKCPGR
Protocol: The enzyme-inhibitory activities in vitro of the compounds of this invention were measured by the following procedure according to the method of M. Muramatsu et al. [[…]. […] After the incubation, 1.5 ml of 2 M alkaline hydroxylamine was added and thoroughly mixed, and allowed to stand at room temperature for 15 minutes. […] It was measured by using 0.1 ml of plasmin (generated by activation of plasminogen with streptokinase) and TAMe as substrate following the method described in (1).

Human Cl Esterase = biological target: T1, Human Cl Esterase (Homo sapiens, UniProt P09871); test: Inhibitory effect on ester-hydrolyzing activity of human Cl esterase (ATEe substrate); conditions: for IC50: pH 7.4, Table 4 bracketed value, read-out: Cl-esterase ID50; for inhibition at 1000 µM: read-out: Cl-esterase percent inhibition; for inhibitory activity on Cl-esterase: text of Examples
T1 sequence (P09871 438-688 limits assumed): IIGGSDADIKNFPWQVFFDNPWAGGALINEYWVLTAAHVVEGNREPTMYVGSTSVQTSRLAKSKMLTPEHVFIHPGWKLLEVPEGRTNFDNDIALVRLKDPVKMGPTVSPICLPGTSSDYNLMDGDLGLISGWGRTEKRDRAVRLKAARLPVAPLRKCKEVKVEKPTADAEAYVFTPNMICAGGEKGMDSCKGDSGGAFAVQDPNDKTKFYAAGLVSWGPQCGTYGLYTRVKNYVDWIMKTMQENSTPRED
T1 sequence (P09871 16-437 partner limits assumed): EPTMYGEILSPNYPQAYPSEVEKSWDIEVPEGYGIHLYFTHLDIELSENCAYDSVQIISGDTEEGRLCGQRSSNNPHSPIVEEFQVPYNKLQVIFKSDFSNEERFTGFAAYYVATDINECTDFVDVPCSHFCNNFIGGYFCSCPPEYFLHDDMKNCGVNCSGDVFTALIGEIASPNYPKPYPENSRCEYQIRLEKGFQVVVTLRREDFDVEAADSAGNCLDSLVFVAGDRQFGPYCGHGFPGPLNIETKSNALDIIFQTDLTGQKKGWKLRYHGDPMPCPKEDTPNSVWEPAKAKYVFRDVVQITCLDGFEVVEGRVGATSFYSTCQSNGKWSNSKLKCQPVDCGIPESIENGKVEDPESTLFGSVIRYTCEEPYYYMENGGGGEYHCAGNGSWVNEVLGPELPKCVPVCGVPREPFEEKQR
Protocol: It was measured by using 0.1 ml of Cl esterase, 0.1 ml of 0.02 M sodium phosphate buffer solution (pH 7.4 ) and 10 μmoles of ATEe (acetyltyrosine ethyl ester) as substrate following the method described in (1).

Bovine Thrombin = Bovine Thrombin (Bos taurus, UniProt P00735); test: Inhibitory effect on ester-hydrolyzing activity of bovine thrombin (TAMe substrate); conditions: for inhibition at 1000 µM: at 10^-3 M, in vitro, TAMe, read-out: Thrombin percent inhibition; for inhibitory activity on thrombin: text of Examples
Protocol: The enzyme-inhibitory activities in vitro of the compounds of this invention were measured by the following procedure according to the method of M. Muramatsu et al. [M. Muramatsu, T. Onishi, S. Makino, Y. Hayashi and S. Fujii: J. Biochem., 58, 214 (1965)]
To 0.1 ml of trypsin (5 μg/ml) were added 0.5 ml of 0.1 M borate buffer solution (pH 8.6) containing 10 mM CaCl2, and 0.1 ml of a varying concentration of an inhibitor solution, and preincubation was carried out at 37° C. for 5 minutes. Then, 10 μmoles of the substrate, TAMe (tosylarginine methyl ester), was added, and incubation was preformed at 37° C. for 30 minutes.
After the incubation, 1.5 ml of 2 M alkaline hydroxylamine was added and thoroughly mixed, and allowed to stand at room temperature for 15 minutes. Then, 1.0 ml of each of 18% trichloroacetic acid, 4 N HCl and 10% FeCl3 was added and thoroughly mixed. If necessary, the mixture was centrifuged at 3,000 rpm for 10 minutes, and the absorbance of the supernatant was measured at 530 nm.
It was measured by using 0.4 ml of bovine thrombin […], 0.02 M sodium phosphate buffer solution (pH 7.4) and TAMe as substrate following the method described in (1).

Human Plasma Kallikrein = Human Plasma Kallikrein (Homo sapiens, UniProt P03952); test: Inhibitory effect on ester-hydrolyzing activity of human plasma kallikrein (TAMe substrate); conditions: for IC50: Table 4 bracketed value, read-out: Kallikrein ID50; for inhibition at 1000 µM: read-out: Kallikrein percent inhibition; for inhibitory activity on kallikrein: text of Examples
Sequence of Human Plasma Kallikrein (P03952 391-638 limits assumed): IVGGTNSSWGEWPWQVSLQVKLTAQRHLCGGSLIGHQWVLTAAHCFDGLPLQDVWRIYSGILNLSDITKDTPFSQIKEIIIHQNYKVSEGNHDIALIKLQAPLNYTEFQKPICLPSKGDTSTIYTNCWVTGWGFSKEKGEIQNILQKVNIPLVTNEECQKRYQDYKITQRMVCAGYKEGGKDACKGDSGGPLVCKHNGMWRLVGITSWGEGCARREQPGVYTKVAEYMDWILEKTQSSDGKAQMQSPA
Sequence of Human Plasma Kallikrein (P03952 20-390 partner limits assumed): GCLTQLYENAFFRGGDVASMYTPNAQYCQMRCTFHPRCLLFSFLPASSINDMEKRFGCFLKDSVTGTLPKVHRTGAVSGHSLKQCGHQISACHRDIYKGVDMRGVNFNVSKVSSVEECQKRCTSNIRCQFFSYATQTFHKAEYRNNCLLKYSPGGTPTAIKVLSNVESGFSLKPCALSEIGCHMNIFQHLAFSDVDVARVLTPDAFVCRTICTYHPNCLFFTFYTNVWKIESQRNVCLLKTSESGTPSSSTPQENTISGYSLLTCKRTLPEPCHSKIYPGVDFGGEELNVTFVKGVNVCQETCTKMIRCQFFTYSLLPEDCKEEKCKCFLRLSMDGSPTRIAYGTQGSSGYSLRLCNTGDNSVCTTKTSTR
Protocol: (§1) The enzyme-inhibitory activities in vitro of the compounds of this invention were measured by the following procedure according to the method of M. Muramatsu et al. [[…]. […] After the incubation, 1.5 ml of 2 M alkaline hydroxylamine was added and thoroughly mixed, and allowed to stand at room temperature for 15 minutes.

Trypsin = biological target: T2, Trypsin (Bos taurus, UniProt P00760); test: Inhibitory effect on ester-hydrolyzing activity of trypsin (TAMe substrate); conditions: for inhibition at 1000 µM: read-out: Trypsin percent inhibition
T2 sequence (P00760 24-246): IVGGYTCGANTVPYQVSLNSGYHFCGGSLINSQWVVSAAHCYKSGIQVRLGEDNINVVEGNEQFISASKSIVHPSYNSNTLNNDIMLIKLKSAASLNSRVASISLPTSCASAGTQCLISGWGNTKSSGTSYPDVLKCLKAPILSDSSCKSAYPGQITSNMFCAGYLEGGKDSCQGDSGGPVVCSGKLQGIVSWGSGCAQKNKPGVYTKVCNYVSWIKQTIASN
Protocol: as §1

[1] = in vitro, TAMe, pH 8.6, 37° C., Table 4 bracketed value, read-out: Trypsin ID50

Structure (SMILES) | inhibition at 1000 µM (Human Plasmin; at 10^-3 M, in vitro, TAMe) [%] | IC50 (Human Cl Esterase; in vitro, ATEe) [µM] | inhibition at 1000 µM (Bovine Thrombin) [%] | IC50 (Trypsin; [1]) [µM] | IC50 (Human Plasmin; in vitro, TAMe) [µM] | IC50 (Human Plasma Kallikrein; in vitro, TAMe) [µM] | inhibition at 1000 µM (Human Cl Esterase) [%] | IC50 (Bovine Thrombin) [µM] | also measured
N=C(N)Nc1cccc2c1CCCC2C(=O)Oc1cccc2ccccc12 (stereo not shown) [Compound 131] | 13.8 | 410 | < 3.2 | 830 |  | 1000 |  |  | 
N#Cc1ccc(OC(=O)C2CCCc3c(NC(=N)N)cccc32)cc1 (stereo not shown) [Compound 162] | 49 |  |  |  |  | 1000 | 26.4 | 1000 | inhibition at 1000 µM (Trypsin; at 10^-3 M, in vitro, TAMe): 44.2%
CN(C)C(=O)COC(=O)c1ccc(OC(=O)C2CCCc3c(N)cccc32)cc1 (stereo not shown) [Compound 72] | < 3.2 |  |  | 25 |  | 1000 | < 3.2 | 120 | 
N=C(N)Nc1cccc2c1CCCC2C(=O)Oc1ccc(C(=O)OCc2ccccc2)cc1 (stereo not shown) [Compound 124] |  | 1000 | 45 | 75 | 60 | 190 |  |  | 
CCOC(=O)c1ccc(OC(=O)C2CCCc3c(N)cccc32)cc1.Cl (stereo not shown) [Compound 66, p-ethoxycarbonylphenyl 5-amino-1,2,3,4-tetrahydro-1-naphthoate hydrochloride] | 4.4 |  | 16.5 |  |  |  | < 3.2 |  | inhibitory activity on plasmin (Human Plasmin): no inhibitory activity; inhibitory activity on Cl-esterase (Human Cl Esterase): no inhibitory activity; inhibitory activity on thrombin (Bovine Thrombin): no inhibitory activity; inhibition at 1000 µM (Human Plasma Kallikrein; at 10^-3 M, in vitro, TAMe): 19.9%; inhibitory activity on kallikrein (Human Plasma Kallikrein): no inhibitory activity; IC50 (Trypsin; in vitro, text of Examples, read-out: ID50, tosylarginine methyl ester hydrolyzing activity of trypsin): 88 µM
Cl.Nc1ccc2c(c1)C(C(=O)Oc1ccc(Cl)cc1)CCC2 (stereo not shown) [Compound 83, p-chlorophenyl 7-amino-1,2,3,4-tetrahydro-1-naphthoate hydrochloride] |  |  |  |  |  |  |  |  | inhibitory activity on plasmin (Human Plasmin): no inhibitory action; inhibitory activity on Cl-esterase (Human Cl Esterase): no inhibitory action; inhibitory activity on thrombin (Bovine Thrombin): no inhibitory action; inhibitory activity on kallikrein (Human Plasma Kallikrein): no inhibitory action
CN(C)C(=O)COC(=O)c1ccc(OC(=O)C2CCCc3ccc(N)cc32)cc1 (stereo not shown) [Compound 100] |  |  |  | 190 | 53 |  | 42 | 40 | inhibition at 1000 µM (Human Plasma Kallikrein; at 10^-3 M, in vitro, TAMe): 36%
Cc1ccc(OC(=O)C2CCCc3ccc(NC(=N)N)cc32)cc1 (stereo not shown) [Compound 136] |  | 540 |  |  |  |  |  | 900 | inhibition at 1000 µM (Human Plasmin): < 3.2%; inhibition at 1000 µM (Human Plasma Kallikrein): < 3.2%; inhibition at 1000 µM (Trypsin): 17.5%

Second part, led by results:

inhibition at 1000 µM (Human Plasmin; at 10^-3 M, in vitro, TAMe) [%] | IC50 (Human Cl Esterase; in vitro, ATEe) [µM] | inhibition at 1000 µM (Bovine Thrombin) [%] | IC50 (Trypsin; [1]) [µM] | IC50 (Human Plasmin; in vitro, TAMe) [µM] | Structure (SMILES) | IC50 (Human Plasma Kallikrein; in vitro, TAMe) [µM] | inhibition at 1000 µM (Human Cl Esterase) [%] | IC50 (Bovine Thrombin) [µM] | also measured
 | 330 |  | 100 | 480 | CCCOC(=O)c1ccc(OC(=O)C2CCCc3ccc(NC(=N)N)cc32)cc1 (stereo not shown) [Compound 151] |  |  | 42 | 
24.6 |  | 40.5 | 60 |  | CCOC(=O)COC(=O)c1ccc(OC(=O)C2CCCc3ccc(N)cc32)cc1 (stereo not shown) [Compound 98] |  |  |  | inhibition at 1000 µM (Human Cl Esterase; at 10^-3 M, in vitro, ATEe): < 3.2%; inhibition at 1000 µM (Human Plasma Kallikrein; at 10^-3 M, in vitro, TAMe): < 3.2%
 | 350 | 46.7 |  | 900 | CCCOC(=O)c1ccc(OC(=O)C2CCCc3c(NC(=N)N)cccc32)cc1 (stereo not shown) [Compound 123] |  |  |  | inhibition at 1000 µM (Trypsin; at 10^-3 M, in vitro, TAMe): 45.7%
< 3.2 |  | 25.1 | 68 |  | CCCOC(=O)c1ccc(OC(=O)C2CCCc3ccc(N)cc32)cc1 (stereo not shown) [Compound 96] |  |  |  | inhibition at 1000 µM (Human Cl Esterase; at 10^-3 M, in vitro, ATEe): < 3.2%
< 3.2 |  | < 3.2 | 41 |  | CCCOC(=O)c1ccc(OC(=O)C2CCCc3c(N)cccc32)cc1 (stereo not shown) [Compound 68] |  |  |  | inhibition at 1000 µM (Human Cl Esterase; at 10^-3 M, in vitro, ATEe): < 3.2%
